{
  "source": "ChEMBL document CHEMBL5465560",
  "about": "“Selectivity Literature for EUbOPEN Chemogenomic Library” (2024)",
  "key": {"[1]": {"target": "T1, Serine/threonine-protein kinase NLK (Homo sapiens) (UniProt Q9UBE8)", "T1 sequence (whole entry)": "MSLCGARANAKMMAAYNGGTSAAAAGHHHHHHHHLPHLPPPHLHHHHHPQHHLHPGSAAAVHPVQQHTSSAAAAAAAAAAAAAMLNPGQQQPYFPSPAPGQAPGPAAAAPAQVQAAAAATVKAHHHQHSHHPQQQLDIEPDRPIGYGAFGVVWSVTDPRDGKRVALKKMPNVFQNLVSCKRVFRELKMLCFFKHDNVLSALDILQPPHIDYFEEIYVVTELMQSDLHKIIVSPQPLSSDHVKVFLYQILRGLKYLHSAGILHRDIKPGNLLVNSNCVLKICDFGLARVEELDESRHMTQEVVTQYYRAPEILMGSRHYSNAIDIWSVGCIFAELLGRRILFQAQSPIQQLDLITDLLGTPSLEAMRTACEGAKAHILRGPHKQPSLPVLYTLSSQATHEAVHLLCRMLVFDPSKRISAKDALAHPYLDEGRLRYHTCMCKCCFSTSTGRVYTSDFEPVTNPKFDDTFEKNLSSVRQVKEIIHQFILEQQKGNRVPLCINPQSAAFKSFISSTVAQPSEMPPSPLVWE", "test": "Selectivity interaction (Upstate Kinase Profiler service (Millipore)) EUB0000056c NLK", "conditions": "at 1 µM"}, "[2]": {"target": "MAP/microtubule affinity-regulating kinase 3 (Homo sapiens) (UniProt P27448)", "test": "Selectivity interaction (ActivX KiNativ screen (kinase selectivity in THP-1 cell lysates)) EUB0000639a MARK3", "format": "subcellular", "conditions": "lysate, at 0.2 µM"}, "[3]": {"target": "T2, Muscle, skeletal receptor tyrosine-protein kinase (Homo sapiens) (UniProt O15146)", "T2 sequence (whole entry)": "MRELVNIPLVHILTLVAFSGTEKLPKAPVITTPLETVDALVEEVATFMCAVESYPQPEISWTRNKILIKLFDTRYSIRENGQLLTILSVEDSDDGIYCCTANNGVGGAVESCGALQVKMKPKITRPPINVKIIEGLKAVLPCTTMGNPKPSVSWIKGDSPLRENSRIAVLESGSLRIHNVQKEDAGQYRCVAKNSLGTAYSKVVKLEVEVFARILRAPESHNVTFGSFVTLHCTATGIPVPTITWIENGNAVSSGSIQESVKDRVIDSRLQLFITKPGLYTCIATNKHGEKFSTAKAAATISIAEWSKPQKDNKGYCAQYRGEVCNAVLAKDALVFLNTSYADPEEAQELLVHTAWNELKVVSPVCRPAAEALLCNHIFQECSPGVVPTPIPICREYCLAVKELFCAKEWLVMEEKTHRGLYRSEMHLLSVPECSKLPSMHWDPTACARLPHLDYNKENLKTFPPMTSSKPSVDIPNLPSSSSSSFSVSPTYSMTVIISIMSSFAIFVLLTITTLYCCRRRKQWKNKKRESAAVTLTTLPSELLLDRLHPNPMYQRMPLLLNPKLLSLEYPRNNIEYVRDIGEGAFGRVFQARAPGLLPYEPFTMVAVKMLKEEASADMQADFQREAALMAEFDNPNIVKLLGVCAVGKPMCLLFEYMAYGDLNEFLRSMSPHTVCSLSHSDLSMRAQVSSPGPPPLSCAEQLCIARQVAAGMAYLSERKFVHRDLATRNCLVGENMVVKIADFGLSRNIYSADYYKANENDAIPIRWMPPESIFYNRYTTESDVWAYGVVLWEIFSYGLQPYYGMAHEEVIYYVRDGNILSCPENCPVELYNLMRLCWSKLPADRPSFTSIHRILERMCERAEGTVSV", "test": "Selectivity interaction (KinomeScan (DiscoverX)) EUB0000595a MUSK", "conditions": "at 10 µM"}, "[4]": {"target": "Tyrosine-protein kinase SYK (Homo sapiens, UniProt P43405)", "test": "Selectivity interaction (KinomeScan (DiscoverX)) EUB0000045b SYK"}, "[5]": {"target": "T3, Phosphorylase b kinase gamma catalytic chain, liver/testis isoform (Homo sapiens) (UniProt P15735)", "T3 sequence (whole entry)": "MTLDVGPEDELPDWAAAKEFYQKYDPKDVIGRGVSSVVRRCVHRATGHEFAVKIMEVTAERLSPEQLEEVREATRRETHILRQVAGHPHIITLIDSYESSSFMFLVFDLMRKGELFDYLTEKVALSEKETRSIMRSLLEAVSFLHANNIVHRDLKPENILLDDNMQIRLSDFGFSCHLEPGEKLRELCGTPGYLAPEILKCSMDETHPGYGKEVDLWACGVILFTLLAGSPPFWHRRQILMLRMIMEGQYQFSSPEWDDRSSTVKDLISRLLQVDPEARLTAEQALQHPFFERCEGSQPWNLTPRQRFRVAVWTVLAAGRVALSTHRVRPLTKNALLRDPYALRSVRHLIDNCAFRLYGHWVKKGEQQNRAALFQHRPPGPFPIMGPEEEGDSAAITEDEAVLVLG", "test": "Selectivity interaction (KinomeScan (DiscoverX)) EUB0000618a PHKG2", "conditions": "at 10 µM"}, "[6]": {"tested_on": "Epidermal growth factor receptor (Homo sapiens), P00533 [G719C]", "sequence (P00533 whole entry G719C)": "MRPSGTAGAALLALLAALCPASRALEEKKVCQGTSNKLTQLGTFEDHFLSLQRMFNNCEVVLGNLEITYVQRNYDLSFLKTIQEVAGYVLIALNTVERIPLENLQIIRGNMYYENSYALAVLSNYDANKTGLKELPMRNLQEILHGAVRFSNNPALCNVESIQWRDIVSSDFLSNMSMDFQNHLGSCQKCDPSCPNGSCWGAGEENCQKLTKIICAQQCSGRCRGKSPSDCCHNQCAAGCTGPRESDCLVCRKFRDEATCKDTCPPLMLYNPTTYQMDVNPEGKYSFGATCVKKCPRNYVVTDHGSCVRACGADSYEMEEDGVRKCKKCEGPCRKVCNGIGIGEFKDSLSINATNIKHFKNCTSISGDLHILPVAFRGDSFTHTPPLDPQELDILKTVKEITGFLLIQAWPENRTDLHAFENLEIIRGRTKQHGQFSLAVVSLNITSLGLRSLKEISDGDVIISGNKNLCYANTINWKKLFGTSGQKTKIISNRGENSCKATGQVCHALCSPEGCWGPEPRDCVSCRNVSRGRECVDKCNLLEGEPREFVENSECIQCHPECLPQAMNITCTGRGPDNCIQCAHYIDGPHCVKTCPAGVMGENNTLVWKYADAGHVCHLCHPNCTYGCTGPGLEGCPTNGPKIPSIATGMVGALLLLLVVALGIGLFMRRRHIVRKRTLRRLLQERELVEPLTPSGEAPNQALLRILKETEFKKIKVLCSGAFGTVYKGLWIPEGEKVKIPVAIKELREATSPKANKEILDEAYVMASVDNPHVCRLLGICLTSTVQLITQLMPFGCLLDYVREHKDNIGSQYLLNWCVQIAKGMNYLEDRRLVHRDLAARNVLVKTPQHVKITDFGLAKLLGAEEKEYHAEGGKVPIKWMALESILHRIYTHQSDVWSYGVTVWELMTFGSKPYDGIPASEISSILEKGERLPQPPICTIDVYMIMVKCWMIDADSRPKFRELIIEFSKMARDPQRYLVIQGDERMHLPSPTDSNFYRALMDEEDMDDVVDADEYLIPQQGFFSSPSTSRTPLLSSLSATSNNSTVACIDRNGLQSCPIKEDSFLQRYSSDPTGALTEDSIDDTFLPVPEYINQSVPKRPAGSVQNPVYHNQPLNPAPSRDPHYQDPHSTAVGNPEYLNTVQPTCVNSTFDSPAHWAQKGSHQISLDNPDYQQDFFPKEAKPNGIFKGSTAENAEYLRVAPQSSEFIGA", "test": "(§1) Selectivity interaction (Ambit KINOMEscan and KiNATiv profiling in Jurkat cells) EUB0000090b EGFR", "format": "cell-based", "conditions": "at 1 µM"}, "[7]": {"tested_on": "Epidermal growth factor receptor (Homo sapiens), P00533 [L858R]", "sequence (P00533 whole entry L858R)": "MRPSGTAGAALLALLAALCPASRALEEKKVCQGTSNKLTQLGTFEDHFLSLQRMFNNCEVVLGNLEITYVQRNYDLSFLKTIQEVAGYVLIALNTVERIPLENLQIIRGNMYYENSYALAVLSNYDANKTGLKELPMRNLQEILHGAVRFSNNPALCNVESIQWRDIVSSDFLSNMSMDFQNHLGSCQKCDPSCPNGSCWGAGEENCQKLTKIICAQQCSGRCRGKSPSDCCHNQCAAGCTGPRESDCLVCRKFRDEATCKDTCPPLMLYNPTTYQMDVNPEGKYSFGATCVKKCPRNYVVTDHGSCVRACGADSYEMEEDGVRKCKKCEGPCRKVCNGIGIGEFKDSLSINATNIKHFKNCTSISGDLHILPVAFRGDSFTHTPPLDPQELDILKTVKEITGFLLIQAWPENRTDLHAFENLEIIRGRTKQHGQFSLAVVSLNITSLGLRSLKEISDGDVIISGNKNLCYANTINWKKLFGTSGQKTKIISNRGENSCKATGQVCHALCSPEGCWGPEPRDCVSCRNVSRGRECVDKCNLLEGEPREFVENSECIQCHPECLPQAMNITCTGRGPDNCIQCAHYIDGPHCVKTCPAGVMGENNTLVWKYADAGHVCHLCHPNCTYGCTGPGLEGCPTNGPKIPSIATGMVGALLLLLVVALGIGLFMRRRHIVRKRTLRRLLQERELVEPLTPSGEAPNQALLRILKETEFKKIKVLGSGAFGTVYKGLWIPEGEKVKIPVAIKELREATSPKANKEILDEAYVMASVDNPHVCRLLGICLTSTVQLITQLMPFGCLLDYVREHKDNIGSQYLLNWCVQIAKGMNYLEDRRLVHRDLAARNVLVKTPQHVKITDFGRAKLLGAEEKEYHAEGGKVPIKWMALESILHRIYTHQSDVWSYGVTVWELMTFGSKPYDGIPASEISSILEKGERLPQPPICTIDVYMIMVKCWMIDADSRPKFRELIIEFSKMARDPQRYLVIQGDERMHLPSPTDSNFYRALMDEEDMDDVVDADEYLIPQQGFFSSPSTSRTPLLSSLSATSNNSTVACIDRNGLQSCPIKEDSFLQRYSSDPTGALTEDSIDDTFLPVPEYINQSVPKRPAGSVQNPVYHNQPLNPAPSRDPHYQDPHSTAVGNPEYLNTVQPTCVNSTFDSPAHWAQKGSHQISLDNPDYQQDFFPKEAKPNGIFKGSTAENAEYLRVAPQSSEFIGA", "test": "as §1", "format": "cell-based", "conditions": "at 1 µM"}, "[8]": {"target": "Epidermal growth factor receptor (Homo sapiens, UniProt P00533)", "test": "as §1", "format": "cell-based", "conditions": "at 1 µM"}, "[9]": {"tested_on": "Epidermal growth factor receptor (Homo sapiens), P00533 [L861Q]", "test": "as §1", "format": "cell-based", "conditions": "at 1 µM"}, "[10]": {"tested_on": "Epidermal growth factor receptor (Homo sapiens), P00533 [L858R,T790M]", "sequence (P00533 whole entry T790M/L858R, looked up)": "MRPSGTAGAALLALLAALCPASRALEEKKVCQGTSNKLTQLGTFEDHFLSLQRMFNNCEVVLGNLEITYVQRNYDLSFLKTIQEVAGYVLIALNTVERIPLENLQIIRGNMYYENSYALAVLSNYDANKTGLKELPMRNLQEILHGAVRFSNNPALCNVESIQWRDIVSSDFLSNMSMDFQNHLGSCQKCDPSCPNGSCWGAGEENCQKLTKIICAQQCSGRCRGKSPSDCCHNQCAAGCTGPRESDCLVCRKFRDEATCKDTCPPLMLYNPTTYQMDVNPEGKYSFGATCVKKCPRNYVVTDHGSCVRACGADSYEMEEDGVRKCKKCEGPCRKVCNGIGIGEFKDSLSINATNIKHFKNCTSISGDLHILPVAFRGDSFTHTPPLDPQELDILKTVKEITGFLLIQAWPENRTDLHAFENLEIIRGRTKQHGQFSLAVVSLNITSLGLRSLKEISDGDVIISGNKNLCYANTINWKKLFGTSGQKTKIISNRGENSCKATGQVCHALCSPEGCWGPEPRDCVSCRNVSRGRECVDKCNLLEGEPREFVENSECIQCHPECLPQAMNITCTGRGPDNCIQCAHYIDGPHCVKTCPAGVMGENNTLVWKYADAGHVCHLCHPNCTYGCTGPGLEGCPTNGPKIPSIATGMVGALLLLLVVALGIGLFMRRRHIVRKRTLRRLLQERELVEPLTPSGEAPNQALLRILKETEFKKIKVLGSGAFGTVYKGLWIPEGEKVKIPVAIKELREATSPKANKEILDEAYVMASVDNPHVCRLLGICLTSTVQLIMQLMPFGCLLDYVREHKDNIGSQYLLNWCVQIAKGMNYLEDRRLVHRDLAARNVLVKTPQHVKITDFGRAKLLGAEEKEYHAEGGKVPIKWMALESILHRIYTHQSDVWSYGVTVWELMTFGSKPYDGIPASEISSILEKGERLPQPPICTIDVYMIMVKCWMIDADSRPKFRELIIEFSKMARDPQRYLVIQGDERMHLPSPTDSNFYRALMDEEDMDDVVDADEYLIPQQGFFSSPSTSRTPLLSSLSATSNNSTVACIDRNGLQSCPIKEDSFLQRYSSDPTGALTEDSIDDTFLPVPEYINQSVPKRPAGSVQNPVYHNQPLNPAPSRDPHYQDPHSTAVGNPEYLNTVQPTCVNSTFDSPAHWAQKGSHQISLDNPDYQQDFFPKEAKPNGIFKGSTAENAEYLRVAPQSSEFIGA", "test": "as §1", "format": "cell-based", "conditions": "at 1 µM"}, "[11]": {"tested_on": "Epidermal growth factor receptor (Homo sapiens), P00533 [G719S]", "test": "as §1", "format": "cell-based", "conditions": "at 1 µM"}, "[12]": {"tested_on": "Epidermal growth factor receptor (Homo sapiens), P00533 [UNDEFINED MUTATION]", "test": "as §1", "format": "cell-based", "conditions": "at 1 µM"}, "[13]": {"tested_on": "Epidermal growth factor receptor (Homo sapiens), P00533 [T790M]", "sequence (P00533 whole entry T790M)": "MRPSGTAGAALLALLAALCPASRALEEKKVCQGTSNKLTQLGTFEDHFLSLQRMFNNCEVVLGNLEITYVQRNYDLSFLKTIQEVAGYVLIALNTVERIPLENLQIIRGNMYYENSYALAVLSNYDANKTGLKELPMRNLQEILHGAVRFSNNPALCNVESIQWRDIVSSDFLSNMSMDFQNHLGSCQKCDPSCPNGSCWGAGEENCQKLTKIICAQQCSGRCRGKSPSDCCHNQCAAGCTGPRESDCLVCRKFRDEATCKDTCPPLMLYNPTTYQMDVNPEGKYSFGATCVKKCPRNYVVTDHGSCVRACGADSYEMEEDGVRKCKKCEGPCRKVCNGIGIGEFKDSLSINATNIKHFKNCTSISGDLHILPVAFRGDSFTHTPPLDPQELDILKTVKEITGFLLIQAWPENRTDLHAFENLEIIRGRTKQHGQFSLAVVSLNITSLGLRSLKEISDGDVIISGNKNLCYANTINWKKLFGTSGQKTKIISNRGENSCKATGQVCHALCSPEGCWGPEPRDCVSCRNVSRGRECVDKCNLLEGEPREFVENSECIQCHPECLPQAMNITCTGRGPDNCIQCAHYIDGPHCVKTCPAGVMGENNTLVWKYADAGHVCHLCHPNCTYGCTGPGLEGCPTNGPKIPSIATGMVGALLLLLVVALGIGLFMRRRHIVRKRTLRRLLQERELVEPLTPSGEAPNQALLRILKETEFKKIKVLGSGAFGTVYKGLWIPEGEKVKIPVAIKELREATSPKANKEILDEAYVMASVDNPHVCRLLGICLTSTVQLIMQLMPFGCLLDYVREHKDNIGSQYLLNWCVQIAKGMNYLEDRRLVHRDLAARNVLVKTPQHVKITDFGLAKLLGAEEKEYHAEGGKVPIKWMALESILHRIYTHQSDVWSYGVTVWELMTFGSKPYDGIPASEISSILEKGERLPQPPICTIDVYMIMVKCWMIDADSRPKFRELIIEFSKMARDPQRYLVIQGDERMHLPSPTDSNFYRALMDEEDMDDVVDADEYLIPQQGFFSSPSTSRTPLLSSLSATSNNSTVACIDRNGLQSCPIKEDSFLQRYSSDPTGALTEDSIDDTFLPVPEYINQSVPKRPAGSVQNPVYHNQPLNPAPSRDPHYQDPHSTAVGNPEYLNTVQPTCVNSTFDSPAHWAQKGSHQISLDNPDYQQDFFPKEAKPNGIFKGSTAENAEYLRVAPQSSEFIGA", "test": "as §1", "format": "cell-based", "conditions": "at 1 µM"}},
  "data": [
    {"compound": "Cc1ccc(-c2ccc3c(ccc4sc5c(c43)NC[C@@H](C)NC5=O)n2)cn1", "values": [
      {"measurement": "% of inhibition", "setting": "[1]", "result": 25, "unit": "%"}
    ]},
    {"compound": "CC[C@@H]1[C@H](F)C(=O)N[C@@H]1COc1nccc2cc(C(N)=O)c(OC)cc12", "note": "[ZIMLOVISERTIB]", "values": [
      {"measurement": "% of inhibition", "setting": "[2]", "result": 19.8, "unit": "%"}
    ]},
    {"compound": "COCC(=O)NC/C=C/c1ccc2ncnc(Nc3ccc(Oc4ccc(C)nc4)c(C)c3)c2c1", "note": "[CP-724714]", "values": [
      {"measurement": "% of control", "setting": "[3]", "result": 100, "unit": "%"}
    ]},
    {"compound": "C=CC(=O)Nc1cc(-n2c(=O)ccc3cnc4ccc(-c5ccc(NS(C)(=O)=O)cc5)cc4c32)ccc1C", "values": [
      {"measurement": "% of control", "setting": "[4]; at 1 µM", "result": 100, "unit": "%"},
      {"measurement": "% of control", "setting": "[4]; at 10 µM", "result": 96, "unit": "%"}
    ]},
    {"compound": "O[C@H]1CC[C@H](Nc2ncc3nc(Nc4c(F)cc(F)cc4F)n([C@H]4CCOC4)c3n2)CC1", "values": [
      {"measurement": "% of control", "setting": "[5]", "result": 99, "unit": "%"}
    ]},
    {"compound": "CN(C)C/C=C/C(=O)Nc1ccc(C(=O)N2CCCC(Nc3ncc(Cl)c(-c4c[nH]c5ccccc45)n3)C2)cc1", "note": "(centres undefined)", "values": [
      {"measurement": "% of control", "setting": "[6]", "result": 88, "unit": "%"},
      {"measurement": "% of control", "setting": "[7]", "result": 100, "unit": "%"},
      {"measurement": "% of control", "setting": "[8]", "result": 99, "unit": "%"},
      {"measurement": "% of control", "setting": "[9]", "result": 71, "unit": "%"},
      {"measurement": "% of control", "setting": "[10]", "result": 90, "unit": "%"},
      {"measurement": "% of control", "setting": "[11]", "result": 91, "unit": "%"},
      {"measurement": "% of control", "setting": "[12]", "result": 70, "unit": "%"},
      {"measurement": "% of control", "setting": "[13]", "result": 99, "unit": "%"}
    ]}
  ]
}
